Values quoted from earlier work in US20090253799A1 (priority 2008, published 2009).

Biological target: T1, wildtype CFTR (Homo sapiens, UniProt P13569)
T1 construct: expressed in transfected cells
Conditions: Muanprasat et al. 2004

T1 sequence (P13569 whole entry): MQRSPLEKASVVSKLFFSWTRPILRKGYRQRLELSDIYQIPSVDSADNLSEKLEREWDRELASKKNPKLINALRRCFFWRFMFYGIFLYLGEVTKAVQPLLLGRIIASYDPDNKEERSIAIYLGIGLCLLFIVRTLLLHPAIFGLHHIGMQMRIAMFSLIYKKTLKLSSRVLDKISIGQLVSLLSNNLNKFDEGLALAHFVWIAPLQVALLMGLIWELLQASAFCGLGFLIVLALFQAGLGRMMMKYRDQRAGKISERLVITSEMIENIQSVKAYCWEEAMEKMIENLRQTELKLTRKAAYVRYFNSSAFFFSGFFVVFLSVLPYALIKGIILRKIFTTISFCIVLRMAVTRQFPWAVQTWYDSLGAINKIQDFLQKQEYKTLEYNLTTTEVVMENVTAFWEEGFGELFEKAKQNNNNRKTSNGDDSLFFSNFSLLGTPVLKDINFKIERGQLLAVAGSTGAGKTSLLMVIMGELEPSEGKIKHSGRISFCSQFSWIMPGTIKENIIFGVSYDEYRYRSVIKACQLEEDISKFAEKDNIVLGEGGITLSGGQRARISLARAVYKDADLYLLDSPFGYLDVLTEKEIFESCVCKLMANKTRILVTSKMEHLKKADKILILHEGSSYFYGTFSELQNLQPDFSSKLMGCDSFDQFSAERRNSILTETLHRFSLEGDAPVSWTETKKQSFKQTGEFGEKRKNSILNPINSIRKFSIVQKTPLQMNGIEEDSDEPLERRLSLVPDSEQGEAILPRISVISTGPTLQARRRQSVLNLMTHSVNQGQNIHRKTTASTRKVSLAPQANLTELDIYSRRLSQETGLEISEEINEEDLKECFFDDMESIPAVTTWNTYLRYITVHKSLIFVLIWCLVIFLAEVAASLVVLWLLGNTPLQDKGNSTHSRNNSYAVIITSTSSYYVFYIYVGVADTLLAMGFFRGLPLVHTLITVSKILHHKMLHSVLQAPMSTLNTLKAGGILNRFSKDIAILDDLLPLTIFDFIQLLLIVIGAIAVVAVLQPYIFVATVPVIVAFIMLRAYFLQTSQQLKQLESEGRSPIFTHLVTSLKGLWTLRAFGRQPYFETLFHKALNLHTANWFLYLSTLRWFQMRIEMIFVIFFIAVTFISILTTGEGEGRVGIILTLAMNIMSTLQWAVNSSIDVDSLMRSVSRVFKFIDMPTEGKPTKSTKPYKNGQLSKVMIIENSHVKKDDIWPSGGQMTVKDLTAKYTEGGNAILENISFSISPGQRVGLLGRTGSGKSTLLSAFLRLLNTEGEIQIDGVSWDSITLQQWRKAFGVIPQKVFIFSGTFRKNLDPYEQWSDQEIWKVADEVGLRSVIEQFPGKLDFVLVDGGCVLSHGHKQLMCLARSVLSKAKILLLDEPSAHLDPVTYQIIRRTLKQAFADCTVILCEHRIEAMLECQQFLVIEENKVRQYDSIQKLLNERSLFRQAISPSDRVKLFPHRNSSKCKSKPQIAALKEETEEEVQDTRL

In the case of `O=C(CNc1ccc2ccccc2c1)N/N=C/c1cc(Br)c(O)c(Br)c1O` [GlyH-101], the “time constants for block and unblock” value is listed as 8 to 10 ms.
